Converted amounts (≈) assume the structure as drawn. Read-outs that look alike come from different tables or passages of the source.
What was measured:
[1] = room temperature; cited from earlier work
[2] = cited from earlier work
[3] = solubility of topiramate in de-ionized water and aqueous surfactant solutions; type: physicochemical; settings: for solubility: water, thermodynamic from solid
Description: As defined herein, the solubility of a pharmaceutical agent is determined by adding the pharmaceutical agent to stirred or agitated de-ionized water maintained in a constant temperature bath at a temperature of 37° C. until no more pharmaceutical agent dissolves. The resulting solution saturated with the pharmaceutical agent is then filtered, typically under pressure through a 0.8-micron Millipore filter, and the concentration of the pharmaceutical agent in the solution is measured by any appropriate analytical method including gravimetric, ultraviolet spectrophometry, chromatography, and the like. The solubility of the pharmaceutical agent is measured at equilibrium.
A drug composition of the present invention was prepared as follows. Aqueous solutions of five surfactants were prepared. The selected surfactants were four grades of ethylene oxide/propylene oxide/ethylene oxide (LUTROL grades F127, F87, F 108, and F68) and PEG-40 stearate (MYRJ 52). Solutions were made at concentrations of 1, 5, and 15 weight percent. The aqueous surfactant blends solutions were chilled as necessary to promote complete dissolution of the surfactant prior to drug solubility studies.
The aqueous surfactant solutions were equilibrated to constant temperature in a 37° C. water bath. Then, neat topiramate drug was added slowly with stirring in approximately 10 mg increments to the surfactant solutions until no more drug dissolved. A control sample of drug dissolved in de-ionized water without surfactant was included for comparison purposes. The resulting saturated solutions of drug were filtered through 0.8 micron filters and analyzed for drug concentration by refractive index chromatography. The resulting solubility values were plotted as a function of both surfactant concentration and the hydrophilic-lipophilic balance value of each surfactant. FIG. 6 was constructed from the solubility values obtained and HLB data for each surfactant utilized.

drug solubility in the presence of each surfactant compared to the control ([3]; LUTROL F127, F87, F108, F68, MYRJ 52 at 1, 5, 15 weight percent, 37° C.): higher
solubility ([3]; de-ionized water without surfactant, 37° C., read-out: solubility in de-ionized water without surfactant (control)): 13 mg/mL (≈ 38.3 mM)
solubility ([3]; de-ionized water, 37 °C, read-out: solubility in de-ionized water): ~12 mg/mL (≈ 35.4 mM)
solubility ([3]; neat drug, stated range, read-out: solubility of neat topiramate): 9.8 to 13 mg/mL (≈ 28.9 to 38.3 mM)
SMILES: CC1(C)O[C@@H]2[C@@H](CO[C@@]3(COS(N)(=O)=O)OC(C)(C)O[C@@H]23)O1 [topiramate, 2,3:4,5-bis-O-(1-methylethylidene)-β-D-fructopyranose sulfamate]
solubility of topiramate in water [1]: about 9.8 mg/ml
mean elimination half life ([2]; in vivo): about 21 hours
time to peak plasma drug concentrations ([2]; oral administration of an immediate release dosage form): approximately 2 hours
